Tested on: 653999-131-R-J2-PDC complex spheroids, growth inhibition
Experiment: Anticancer human tumor 653999-131-R-J2-PDC patient-derived lung adenocarcinoma cell line growth inhibition [RAS]
Details: for IC50: curve of first compound; for viability, T/C: stronger effect = lower value
Excerpt: RAS pathway inhibitors in Combinations in Complex Spheroids
A high-throughput screen of multi-cell type tumor spheroids was designed to identify active combinations of RAS pathway inhibitors and targeted small molecules. Complex spheroids include a stromal component modeled by human endothelial cells (HUVEC) and fibroblasts modeled by human mesenchymal stem cells (MSCs). The concentration ranges selected for each drug and investigational agent were based upon clinically achievable concentrations if the clinical Cmax of the agent was known.
Compounds. The drugs and investigational agents: abemaciclib (NSC768073), cobimetinib (NSC768068), divarasib (GDC6063, NSC841802), docetaxel (NSC628503), GDC-1971 (RLY-1971, NSC841576), gemcitabine (NSC613327), inavolisib (NSC800729), ipatasertib (NSC767898), KB-0742 (NSC834161), MRTX-1133 (NSC836407), osimertinib (NSC779217), RMC-4630 (NSC839698), RMC-6236 (NSC851965), RMC-6291 (NSC852671), Ro-3306 (NSC812927), sapanisertib (NSC764658), SN-38 (NSC673596), staurosporine (NSC755774), SY5609 (NSC837396), and tovorafenib (DAY101, NSC766906), were obtained from the National Cancer Institute (NCI) Developmental Therapeutics Program Chemical Repository. The FDA-approved anticancer drug set is available from the NCI Developmental Therapeutics Program. […] The stock solutions were prepared in dimethyl sulfoxide (DMSO, Sigma-Aldrich, St. Louis, MO, cat. D2650) at 800-fold the tested concentration and stored at -70 degrees C prior to their use. All drugs and investigational agents were tested over a range starting from a high concentration at or near the clinical Cmax and decreasing in half-log increments. If the clinical Cmax for an agent had not been determined, the highest concentration tested was 10 microM.
Cell Culture. All cells were maintained in an incubator at 37 degrees C and 5% CO2 with 95% humidity. The PDC lines were cultured according to standard operating procedures established by the NCI PDMR. All PDCs were thawed and cultured in Matrigel-coated flasks prepared with a working solution of 1X Ham's F-12 nutrient mix, without supplementation (Invitrogen, Waltham, MA, cat. 11765054), 100 U/mL penicillin-streptomycin (Invitrogen, cat. 15140122), and 2.5% Matrigel (Corning Inc., Corning, NY, cat. 354248) for the first three passages. The 362531-283-R-J2-PDC and 782815-120-R-J1-PDC lines were cultured in 6C/Colon 1B media, which includes advanced DMEM/F-12 (Thermo Fisher Scientific, cat. 12634028), 10 mM HEPES (Thermo Fisher Scientific, cat. 15630080), 1X GlutaMAX supplement (Thermo Fisher Scientific, cat. 35050061), 0.1 mg/mL primocin (InvivoGen, San Diego, CA, cat. ant-pm-2), 10% defined fetal bovine serum, heat inactivated (HyClone Laboratories Inc., Logan, UT, cat. SH30070.03HI), 50% L-WRN conditioned media (ATCC, cat. CRL-3276), 1.25 mM N-Acetyl-L-cysteine (Sigma-Aldrich, cat. A9165), 10 mM nicotinamide (Sigma-Aldrich, cat. N0636), 1X B-27 supplement (Thermo Fisher Scientific, cat. 17504044), 1X N-2 supplement (Thermo Fisher Scientific, cat. 17502048), 50 ng/mL human EGF (Thermo Fisher Scientific, cat. PHG0311), and 10 microM Y-27632 dihydrochloride (Tocris Bioscience, cat. 1254). The K12877-001-R-J1-PDC line was cultured in 6I media, which includes all 6C/Colon 1B media plus 10 ng/mL human FGF-10 (PeproTech, cat. 100-26), 1 ng/mL human FGF-2 (PeproTech, cat. 100-18B), 1 µM prostaglandin E2 (Tocris Bioscience, cat. 2296), […] hydrocortisone (Sigma-Aldrich, cat. H4001), and […] bovine insulin (Sigma-Aldrich, cat. I6634). The K86415-001-R-J1-PDC line was cultured in 6D media, which includes all 6C/Colon 1B media components minus the L-WRN conditioned media. The 485176-168-R4-J1-PDC was cultured in PANC media, which includes all 6C/Colon 1B media plus 100 ng/mL human FGF-10 (PeproTech, cat. 100-26), 500 nM SB-431542 (Selleckchem, cat. S1067), and 10 nM gastrin (Tocris Bioscience, cat. 3006). […]

[1] = second compound 0.0316 µM, first compound 0.0316 µM
[2] = second compound 0.0316 µM, first compound 0.1 µM
[3] = second compound 0.1 µM, first compound 0.0316 µM
[4] = second compound 0.1 µM, first compound 0.1 µM
[5] = second compound 0.316 µM, first compound 0.0316 µM
[6] = second compound 0.316 µM, first compound 0.1 µM
[7] = second compound 1 µM, first compound 0.0316 µM
[8] = second compound 1 µM, first compound 0.1 µM
[9] = second compound 3.16 µM, first compound 0.0316 µM
[10] = second compound 3.16 µM, first compound 0.1 µM
[11] = second compound 10 µM, first compound 0.0316 µM
[12] = second compound 10 µM, first compound 0.1 µM
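Also: spheroids exposed to the agents for seven days before the readout.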

`CC(C)NCC(C(=O)N1CCN(c2ncnc3c2C(C)CC3O)CC1)c1ccc(Cl)cc1` (centres undefined) + C#Cc1c(F)ccc2cc(O)cc(-c3ncc4c(N5CC6CCC(C5)N6)nc(OCC56CCCN5CC(F)C6)nc4c3F)c12 gave an IC50 (second compound 0.0316 µM) of 1220 nM, an IC50 (second compound 0.1 µM) of 593 nM and an IC50 (second compound 0.316 µM) of 190 nM. The IC50 (second compound 1 µM) was 84.5 nM, the IC50 (second compound 3.16 µM) was under 31.6 nM and the IC50 (second compound 10 µM) was under 31.6 nM. For the same molecule, the viability, T/C [1] was 109%, the viability, T/C [2] was 84.2% and the viability, T/C (second compound 0.0316 µM, first compound 0.316 µM) was 72%. For the same molecule, the viability, T/C (second compound 0.0316 µM, first compound 1 µM) was 53.6%, the viability, T/C (second compound 0.0316 µM, first compound 3.16 µM) was 35% and the viability, T/C (second compound 0.0316 µM, first compound 10 µM) was 28.9%. It also gave a viability, T/C [3] of 97.6%, a viability, T/C [4] of 55.7% and a viability, T/C (second compound 0.1 µM, first compound 0.316 µM) of 70.4%. It also gave a viability, T/C (second compound 0.1 µM, first compound 1 µM) of 43.6%, a viability, T/C (second compound 0.1 µM, first compound 3.16 µM) of 37.6% and a viability, T/C (second compound 0.1 µM, first compound 10 µM) of 32.1%. It also gave a viability, T/C [5] of 56.5%, a viability, T/C [6] of 62.6% and a viability, T/C (second compound 0.316 µM, first compound 0.316 µM) of 38.8%. The viability, T/C (second compound 0.316 µM, first compound 1 µM) was 38.9%, the viability, T/C (second compound 0.316 µM, first compound 3.16 µM) was 26.2% and the viability, T/C (second compound 0.316 µM, first compound 10 µM) was 20.5%. It also gave a viability, T/C [7] of 64.7%, a viability, T/C [8] of 40.8% and a viability, T/C (second compound 1 µM, first compound 0.316 µM) of 45%. The viability, T/C (second compound 1 µM, first compound 1 µM) was 21%, the viability, T/C (second compound 1 µM, first compound 3.16 µM) was 19.4% and the viability, T/C (second compound 1 µM, first compound 10 µM) was 14%. It also gave a viability, T/C [9] of 36.9%, a viability, T/C [10] of 43.9% and a viability, T/C (second compound 3.16 µM, first compound 0.316 µM) of 27.9%. For the same molecule, the viability, T/C (second compound 3.16 µM, first compound 1 µM) was 19%, the viability, T/C (second compound 3.16 µM, first compound 3.16 µM) was 12.7% and the viability, T/C (second compound 3.16 µM, first compound 10 µM) was 9.87%. The viability, T/C [11] was 23.3%, the viability, T/C [12] was 23.3% and the viability, T/C (second compound 10 µM, first compound 0.316 µM) was 22.8%. It also gave a viability, T/C (second compound 10 µM, first compound 1 µM) of 14.1%, a viability, T/C (second compound 10 µM, first compound 3.16 µM) of 9.37% and a viability, T/C (second compound 10 µM, first compound 10 µM) of 5.49%.

With `CC(C)n1nc(-c2ccc3oc(N)nc3c2)c2c(N)ncnc21` + C#Cc1c(F)ccc2cc(O)cc(-c3ncc4c(N5CC6CCC(C5)N6)nc(OCC56CCCN5CC(F)C6)nc4c3F)c12 the IC50 (second compound 0.0316 µM) was 13.6 nM, the IC50 (second compound 0.1 µM) was 8.56 nM and the IC50 (second compound 0.316 µM) was 2.52 nM. For the same molecule, the IC50 (second compound 1 µM) was under 0.316 nM, the IC50 (second compound 3.16 µM) was under 0.316 nM and the IC50 (second compound 10 µM) was under 0.316 nM. It also gave a viability, T/C (second compound 0.0316 µM, first compound 0.000316 µM) of 97.1%, a viability, T/C (second compound 0.0316 µM, first compound 0.001 µM) of 97.5% and a viability, T/C (second compound 0.0316 µM, first compound 0.00316 µM) of 74.1%. The viability, T/C (second compound 0.0316 µM, first compound 0.01 µM) was 57.8%, the viability, T/C [1] was 34.1% and the viability, T/C [2] was 24.7%. It also gave a viability, T/C (second compound 0.1 µM, first compound 0.000316 µM) of 94.5%, a viability, T/C (second compound 0.1 µM, first compound 0.001 µM) of 99.5% and a viability, T/C (second compound 0.1 µM, first compound 0.00316 µM) of 68.3%. It also gave a viability, T/C (second compound 0.1 µM, first compound 0.01 µM) of 49%, a viability, T/C [3] of 28.1% and a viability, T/C [4] of 21.3%. It also gave a viability, T/C (second compound 0.316 µM, first compound 0.000316 µM) of 78%, a viability, T/C (second compound 0.316 µM, first compound 0.001 µM) of 48.8% and a viability, T/C (second compound 0.316 µM, first compound 0.00316 µM) of 57.9%. The viability, T/C (second compound 0.316 µM, first compound 0.01 µM) was 35.3%, the viability, T/C [5] was 20.2% and the viability, T/C [6] was 16.2%. It also gave a viability, T/C (second compound 1 µM, first compound 0.000316 µM) of 42.1%, a viability, T/C (second compound 1 µM, first compound 0.001 µM) of 38.6% and a viability, T/C (second compound 1 µM, first compound 0.00316 µM) of 32.3%. For the same molecule, the viability, T/C (second compound 1 µM, first compound 0.01 µM) was 27.1%, the viability, T/C [7] was 16.1% and the viability, T/C [8] was 10.1%. The viability, T/C (second compound 3.16 µM, first compound 0.000316 µM) was 42%, the viability, T/C (second compound 3.16 µM, first compound 0.001 µM) was 43.8% and the viability, T/C (second compound 3.16 µM, first compound 0.00316 µM) was 24.3%. The viability, T/C (second compound 3.16 µM, first compound 0.01 µM) was 20.1%, the viability, T/C [9] was 10.5% and the viability, T/C [10] was 8.31%. It also gave a viability, T/C (second compound 10 µM, first compound 0.000316 µM) of 22.6%, a viability, T/C (second compound 10 µM, first compound 0.001 µM) of 27.4% and a viability, T/C (second compound 10 µM, first compound 0.00316 µM) of 17%. It also gave a viability, T/C (second compound 10 µM, first compound 0.01 µM) of 11.6%, a viability, T/C [11] of 7.55% and a viability, T/C [12] of 5.84%.

Source: PubChem BioAssay AID2060886 (Molecular Pharmacology Branch, DTP, NCI, 2025)
